Measured values taken from paper PMC11547452, “Synthesis of New Pyrazolo[3,4-d]pyrimidine Derivatives: NMR Spectroscopic Characterization, X-Ray, Hirshfeld Surface Analysis, DFT, Molecular Docking, and Antiproliferative Activity Investigations” (Molecules, 2024).

Key:
[1] = system: WI38 normal cell line; assay: MTT cytotoxicity assay, WI38 normal cell line; assay type: cell-based; conditions: cancer cell lines vs WI38 normal cell line; formula not given
Method: (§1) The antiproliferative activity of P1–P4 was evaluated by the MTT standard assay and sunitinib (a well-known FDA-approved multi-kinase inhibitor) as a reference against HCT 116, HepG2, and MCF-7 cell lines, and WI38 normal cell line. […] The antiproliferative activity of P1–P4 was assessed by using an MTT standard assay and sunitinib drug towards HCT 116, HepG2, MCF-7 cells, and WI38 normal cell line using the previously described methodology.

[2] = MTT cytotoxicity assay, WI38 normal cell line; assay type: cell-based; conditions: human, WI38 normal cells; WI38 normal cell line; MTT; three different experiments; read-out: In Vitro Cytotoxicity IC50
Method: as §1

[3] = system: HCT 116; assay: MTT antiproliferative assay, HCT 116; assay type: cell-based; conditions: Homo sapiens, three different experiments, read-out: In Vitro Cytotoxicity IC50
Method: as §1

[4] = system: HCT 116, HepG2, and MCF-7 cell lines; assay: MTT antiproliferative assay, summary over the tested cell lines; assay type: cell-based; conditions: across the tested cancer cell lines
Method: as §1

[5] = system: HepG2; assay: MTT antiproliferative assay, HepG2; assay type: cell-based; conditions: Homo sapiens, three different experiments, read-out: In Vitro Cytotoxicity IC50
Method: as §1

[6] = system: MCF-7; assay: MTT antiproliferative assay, MCF-7; assay type: cell-based; conditions: Homo sapiens, MCF7, three different experiments, read-out: In Vitro Cytotoxicity IC50
Method: as §1

IC50 [4] | melting point | Compound | Selectivity Index [1] | IC50 [2] | IC50 [3] | IC50 [5] | IC50 [6]
 |  | CCN(CC)CCNC(=O)c1c(C)[nH]c(/C=C2\C(=O)Nc3ccc(F)cc32)c1C [Sunitinib, sunitinib, reference compound] | 0.30 | 55.6 ± 3.3 µM |  |  | 
22.7 to 40.8 µM | 153 to 155 °C | Cc1nn(-c2ccccc2)c2nc[nH]c(=O)c12 [Compound P1, 3-methyl-1-phenyl-1,5-dihydro-4H-pyrazolo[3,4-d]pyrimidin-4-one] |  | 85.7 ± 4.7 µM | 28.9 ± 2.1 µM | 22.7 ± 1.7 µM | 36.3 ± 2.6 µM
22.7 to 40.8 µM | 143 to 145 °C | Cc1nn(-c2ccccc2)c2ncn(C)c(=O)c12 [Compound P2, 3,5-Dimethyl-1-phenyl-1,5-dihydro-4H-pyrazolo[3,4-d]pyrimidin-4-one] |  | > 100 µM | 38.7 ± 2.3 µM | 31.9 ± 2.1 µM | 40.8 ± 2.4 µM
> 67 µM | 155 to 157 °C | C#CCn1cnc2c(c(C)nn2-c2ccccc2)c1=O [Compound P3, 3-Methyl-1-phenyl-5-(prop-2-yn-1-yl)-1,5-dihydro-4H-pyrazolo[3,4-d]pyrimidin-4-one] | 1.67 | 52.5 ± 3.1 µM | 89.9 ± 4.5 µM | 88.6 ± 4.7 µM | 85.2 ± 4.4 µM
> 67 µM |  | Cc1nn(-c2ccccc2)c2ncn(CC(=O)c3ccccc3)c(=O)c12 [Compound P4, 3-Methyl-5-(2-oxo-2-phenylethyl)-1-phenyl-1,5-dihydro-4H-pyrazolo[3,4-d]pyrimidin-4-one] |  | 44 ± 2.6 µM | 92.5 ± 4.9 µM | 66.8 ± 3.8 µM | > 100 µM
